# Assay results taken from PubChem BioAssay AID1996.
# Conditions: buffer; pH 7.4; 200.0 µM
row,Compound,solubility kinetic
1,CC(C)(C)c1ccc(C(=O)NCCC(=O)N2CCCC2)cc1,> 45.4 µg/mL
2,Cc1cc(C)c(OCCN(C)C)c(Cl)c1.O=C(O)C(=O)O,> 47.7 µg/mL
3,O=c1[nH]c2cccnc2n1-c1cccc([N+](=O)[O-])c1,17 µg/mL
4,Cc1cccn2c(=O)c3cc(C(=O)NC4CCCCC4)c(=N)n(CCN4CCOCC4)c3nc12,52.2 µg/mL
5,O=C(Nc1ccncc1)Nc1ccc(Cl)cc1,9.8 µg/mL
6,Cc1nc2sccn2c(=O)c1CCN1CCC(=C(c2ccc(F)cc2)c2ccc(F)cc2)CC1,12.2 µg/mL
7,Cc1ccc2nc(COc3ccc(Cl)cc3)cc(=O)n2c1,0.5 µg/mL
8,O=S(=O)(c1ccc(Cl)nc1)N1CCCC1,> 37 µg/mL
9,COc1ccc(CNC(=O)c2cc(S(=O)(=O)N3CCCCC3)ccc2Cl)cc1OC,3.1 µg/mL
10,CC(CN1CCCCC1)NC(=O)c1cccs1 (stereo not given),> 37.9 µg/mL
11,O=C(CN1C(=O)c2ccccc2C1=O)NCc1ccc(F)cc1,6.5 µg/mL
12,O=C(Nc1ccc(Cl)c(Cl)c1)Nc1ccccc1O,8.5 µg/mL
13,O=C(/C=C/c1ccco1)OCC(=O)N1CCCCC1,> 39.5 µg/mL
14,CCC1(CC)NC(=O)N(CC(=O)Nc2cccc3ccccc23)C1=O,> 50.9 µg/mL
15,COc1cc(NC(=S)Nc2ccc(OC(F)F)cc2)cc(OC)c1,23.9 µg/mL
16,CN(C)S(=O)(=O)c1ccc(C(=O)NC(=O)CSc2nncs2)cc1,> 58 µg/mL
17,O=C(O)c1ccc(Cl)c(NCc2cccs2)c1,34.8 µg/mL
18,Cc1cccc(NC(=O)NCc2ccc3c(c2)OCO3)c1,1.6 µg/mL
19,O=C1CC2c3ccccc3C1C1C(=O)N(CCO)C(=O)C21 (stereo not given),> 42.8 µg/mL
20,CCOC(=O)Nc1ccc2c(c1)N(C(=O)CCN1CCOCC1)c1ccccc1S2,> 64.1 µg/mL
21,Cc1ccc(OCC(=O)N(Cc2ccccc2)c2ccccn2)cc1,49.6 µg/mL
22,CC(=O)c1cccn1S(=O)(=O)c1ccccc1,36.9 µg/mL

row,Compound,solubility kinetic
1,CN(C)C(=S)Nc1cccc(F)c1,28.5 µg/mL
2,CN(O)/C=N/C(=S)Nc1ccc(Cl)cc1Cl,38.4 µg/mL
3,COc1cc(CN=Cc2c(O)n(C(C)(C)C)c(=O)[nH]c2=O)cc(OC)c1,2.8 µg/mL
4,Cc1cccc(C)c1NC(=S)N/N=C/c1ccc(C(=O)O)cc1,> 49.1 µg/mL
5,CCC(Oc1ccccc1)C(=O)NC1CCSC1=O (stereo not given),> 41.9 µg/mL
6,CC(=O)Nc1ccc(NC(=O)COC(=O)c2ccccn2)cc1,> 47 µg/mL
7,Cn1cnc2c1c(=O)n(Cc1ccc(Cl)cc1Cl)c(=O)n2C,> 50.9 µg/mL
8,CCOC(=O)C1CCN(C(=O)c2cc3c(C)cc(C)cc3[nH]2)CC1,7.7 µg/mL
9,Cn1c(N)c(C(=O)COC(=O)Cc2ccccc2)c(=O)n(C)c1=O,> 49.7 µg/mL
10,O=c1c2ccccc2nc2ccccn12,28.7 µg/mL
11,Cc1ccccc1-c1noc(-c2ccccc2C(=O)O)n1,> 42 µg/mL
12,COCCCNS(=O)(=O)c1ccc2[nH]c(=O)[nH]c2c1,> 42.8 µg/mL
13,Cc1ccc(-c2cnco2)cc1,< 0.3 µg/mL
14,CCN(CC(=O)Nc1cccc(OC)c1)C(=O)c1ccco1,> 45.3 µg/mL
15,O=c1cc(-c2ccc(Cl)cc2)oc(=O)[nH]1,> 33.5 µg/mL
16,O=C(Nc1nccs1)c1ncc(Cl)c(Cl)c1Cl,12.5 µg/mL
17,Cc1nnc(SCC(=O)N(C)C2CCCCC2)s1,> 42.8 µg/mL
18,CC1=C(C)C(OCCCl)N(c2cc(O)c(Cl)cc2F)C1=O (stereo not given),46.3 µg/mL
19,CCCCN(C(=O)c1cccs1)c1c(N)n(Cc2ccccc2)c(=O)[nH]c1=O,6.1 µg/mL
20,Cc1cccc(NC(=O)CN(c2ccc(F)cc2)S(C)(=O)=O)c1,42.4 µg/mL
21,Cc1cccc(CSc2nc3c(c(=O)n2C)SCC3)c1,11.6 µg/mL
22,C=CCN1C(=O)C(C)(C)N(C(=O)c2cccc([N+](=O)[O-])c2)c2ccccc21,23.5 µg/mL

row,Compound,solubility kinetic
1,COc1cc(C)ccc1OCC(=O)NCC1CCCO1 (stereo not given),> 41.9 µg/mL
2,O=C(Nc1cccc([N+](=O)[O-])c1)NC1CCCCCCC1,3.8 µg/mL
3,Cc1cccc(C)c1NC(=S)N1CCCN(C)CC1,> 41.6 µg/mL
4,CC(NC(=O)COC(=O)C1CCCCC1)c1ccccc1 (stereo not given),> 43.4 µg/mL
5,Cc1cc2c([nH]c3ccccc32)c(C)[nH+]1.[Cl-],26.2 µg/mL
6,CCn1c(=O)c([N+](=O)[O-])c(NCCCn2ccnc2)c2ccccc21,> 51.2 µg/mL
7,O=S(=O)(c1cc(F)ccc1F)N1CCN(c2ccccn2)CC1,18.9 µg/mL
8,CC1CCCC(NC(=O)COC(=O)c2cc3ccccc3oc2=O)C1C (stereo not given),33.3 µg/mL
9,Nc1nc(SCC(=O)Nc2cccc(F)c2)n[nH]1,> 40.1 µg/mL
10,O=C(CCNC(=O)c1ccco1)Nc1ccc(OC(F)F)cc1,43.6 µg/mL
11,O=C(Nc1ccc(Br)cc1)c1cnc[nH]1,> 39.9 µg/mL
12,COc1ccc(C(=O)Nc2cccc(OC(=O)c3ccco3)c2)cc1,3.2 µg/mL
13,CCOc1ccc(C2Nc3ccccc3C(CC)(CC)O2)cc1 (stereo not given),2.1 µg/mL
14,CCOC(=O)Cc1nc(-c2cccc(C(F)(F)F)c2)no1,7.6 µg/mL
15,O=C(O)CCCCNS(=O)(=O)/C=C/c1ccccc1,> 42.5 µg/mL
16,O=C1CS/C(=N/N=C/c2ccncc2)N1,> 33 µg/mL
17,CCN(c1ccccc1)S(=O)(=O)c1cc(C(=O)NCC(c2ccco2)N2CCCCC2)ccc1C (stereo not given),18.2 µg/mL
18,CC(=O)Nc1ccc(S(=O)(=O)Nc2nccs2)cc1,> 44.6 µg/mL
19,O=S(=O)(c1ccccc1)N1CCc2ccccc21,2 µg/mL
20,O=C(COC(=O)c1cccc(Cl)c1)Nc1cccc(S(=O)(=O)NC2=NCCC2)c1,63.3 µg/mL
21,CC(C(=O)NCC1CCCCC1)N(C)Cc1ccc(Cl)cc1 (stereo not given),19.5 µg/mL
22,O=S(=O)(NCC1CCCO1)c1ccccc1F (stereo not given),> 38.9 µg/mL

row,Compound,solubility kinetic
1,Cc1c([N+](=O)[O-])c(C(=O)NC2CCCCC2)nn1C,> 39.9 µg/mL
2,COC(=O)c1sccc1NC(=O)CSCCc1ccncc1,49.6 µg/mL
3,O=C(NCCc1ccccc1)c1cc([N+](=O)[O-])ccc1N1CCOCC1,53.2 µg/mL
4,CCN(CC)c1ccc(C=Nc2cccc(S(=O)(=O)N3CCOCC3)c2)c(O)c1,8.3 µg/mL
5,CCCOc1ccc(N2C(=O)CC(N(CCCO)C(=O)CC)C2=O)cc1 (stereo not given),> 54.4 µg/mL
6,O=C(O)CCC(=O)Nc1ccc(S(=O)(=O)Nc2nccs2)cc1,51.4 µg/mL
7,CCNc1nc(NCC)nc(NS(=O)(=O)c2ccc(N)cc2)n1,36.9 µg/mL
8,Cc1cccc(C)c1NC(=O)CSc1n[nH]c(=O)n1C1CC1,> 47.8 µg/mL
9,COc1ccccc1/C=C/C(=O)Nc1cccnc1,> 38.1 µg/mL
10,CCOC(=O)C1(CCOc2ccccc2)CCN(CC2CC2)CC1,45.7 µg/mL
11,COc1ccc(CCC(=O)OCC(=O)Nc2sccc2C(N)=O)cc1OC,21 µg/mL
12,CC(C)(C)c1nc2cc(Cl)c([N+](=O)[O-])cc2o1,6.5 µg/mL
13,CC(=O)Nc1ccc2sc(NC(=O)CN3CCOCC3)nc2c1,> 50.2 µg/mL
14,CCc1ccc(/C=C2/C(=O)NC(=O)N2C(C)=O)cc1,18.6 µg/mL
15,O=c1ccnc(Nc2ccc([N+](=O)[O-])cc2)[nH]1,> 34.8 µg/mL
16,O=C(COC(=O)c1cc(S(=O)(=O)N2CCOCC2)ccc1F)NC1CC1,55.1 µg/mL
17,O=C(Nc1ccc2c(c1)OCO2)C1CC1,> 30.8 µg/mL
18,COc1ccccc1OCCn1c(C)c(C=O)c2ccccc21,1 µg/mL
19,O=C1CC(c2ccccc2)CC(=O)N1c1ccccc1,11.3 µg/mL
